{"source": "patent US20220079966A1", "about": "“HYALURONAN SYNTHESIS INHIBITION FOR TREATING AUTOIMMUNE, INFLAMMATORY, FIBROTIC, OR PROLIFERATIVE DISEASES OR DISORDERS” (The Board of Trustees of the Leland Stanford Junior …, priority 2018, published 2022)", "key": {"CHO-HAS3 cells": {"test_system": "CHO-HAS3 cells", "assay": "HA production by CHO-HAS3 cells engineered to overexpress HAS3", "type": "cell-based", "settings": "48 hours; non-hydrolyzable 4-MUG at comparable doses to 4-MU or conventional 4-MUG", "protocol": "Samples were thawed and assayed for HA levels using a modified HA ELISA as previously described (Nagy N., et al., J. Clin. Invest. 2015; 125(10):3928-3940). Each sample was analyzed in triplicate with a mean value obtained per sample. For cell normalization, LI-COR CellTag™ 700 Stain was used according to the manufactures protocol.\nTo test whether 4-MUG has bioactivity independently of any possible conversion to 4-MU, a non-hydrolyzable version of 4-MUG was generated (FIG. 5A)."}, "[1]": {"assay": "Conversion of 4-MUG into fluorescent 4-MU in medium (fluorescence plate reader)", "type": "in vitro ADME", "settings": "PBS with 10% FCS, monitored up to 72 hours", "protocol": "Given the established activity of 4-MU leading to inhibition of HA synthesis, it seemed possible that the bioactivity of 4-MUG could be attributed to its hydrolysis into 4-MU. It is generally known that 4-MU is fluorescent while 4-MUG is not. In particular, 4-MU has an excitation wavelength of 380 nm and an emission wavelength of 454 nm in water.\nFluorescent values of 4-MUG were normalized to the 4-MU fluorescence. Referring to FIG. 2 B, 4-MU or 4-MUG was added to PBS with 10% FCS and the increase of fluorescence signal using a fluorescence plate reader was monitored at intervals up to 72 hours."}, "[2]": {"set-up": "species or system mice", "settings": "mouse, in vivo", "protocol": "The 4-MU (Alfa Aesar) was pressed into mouse chow (TestDiet, St. Louis, Mo.) and irradiated before shipment, as previously described (Nagy N., et al., Circulation. 2010; 122(22):2313-2322). This chow formulation delivers 250 mg/mouse/day, yielding a serum drug concentration of 640.3±17.2 nmol/L in mice, as measured by HPLC-MS. 4-MUG (ChemImpex, Wood Dale, Ill.) was distributed in the drinking water at a concentration of 2 mg/ml, delivering 10 mg/mouse/day, yielding a serum drug concentration of 357.1±72.6 ng/mL in mice, as measured by LC-MS/MS. Mice were initiated on 4-MU and 4-MUG at five, eight or twelve weeks of age, unless otherwise noted, and were maintained on this diet until they were euthanized, unless otherwise noted. For analysis of Foxp3+ regulatory T-cell numbers in naïve mice, mice were treated daily with 0.5 mg of 4-MU or 1.0 mg 4-MUG in 200 μl 0.08% carboxymethylcellulose in saline by intra-peritoneal injection.\n4-methylumbelliferone-13C4 (Toronto Research Chemicals, Ontario, Canada) was used as the internal standard (IS) for 4-MU and 7-hydroxycoumarin β-D-glucuronide (Toronto Research Chemicals, Ontario, Canada) as the IS for 4-MUG. The neat stock solutions of 4-MU and 4-MUG were mixed and diluted in 50% methanol to prepare the spiking solutions ranging from 1 ng/mL to 5000 ng/mL for each compound. […]"}, "blood leukocytes": {"test_system": "blood leukocytes", "assay": "Leukocyte 4-MU uptake in mice on oral 4-MU (flow cytometry, Pacific Blue channel)", "type": "in vivo, C57Bl/6J mice", "settings": "blood leukocyte subsets, days 0, 2, 7, 14", "source_text": "Next, the uptake of 4-MU by different leukocyte subsets was examined. To this end, mice were fed 4-MU and 4-MU signal was examined on blood leukocytes from representative animals at intervals of 0, 2, 7, and 14 days after the initiation of 4-MU treatment. […] Bold histograms depict signal in 4-MU treated mice, shaded histograms depict background Pacific Blue signal in untreated mice. Cell surface markers were stained to examine 4-MU uptake by multiple cell types, including CD4+ T-cells (CD3+CD4+), CD8+ T-cells (CD3+CD8+), B-cells (I-A/I-E+B220+) dendritic cells (DC; I-A/I-E+CD11c+), macrophages (Mc); I-A/I-E+CD11c−), neutrophils (Ly6G/C+CD14+) and monocytes (Ly6G/C-CD14+).\nC57Bl/6J mice were treated with 4-MU and leukocytes from representative animals were isolated from the blood at baseline (before 4-MU treatment) and at intervals of 2, 7, and 14 days after the initiation of chow. […] To detect fluorescence emitted by 4-MU using flow cytometry on specific leukocyte subsets, peripheral blood red cells were lysed using Ammonium-Chloride-Potassium (ACK) buffer, and leukocytes were stained with the following fluorochrome-conjugated antibodies: BV650-CD3 (17-A2), BV785-CD4 (RM4-5), APC-CD11c (N418), PE-CD14 (Sa2-8), PE-Cy7-Ly-6G/C (RB6-8C5), PE-CyS. […] Samples were run on a BD™ LSRII flow cytometer (Beckon Dickinson) and data was analyzed using FlowJo software (TreeStar)."}}}
{"smiles": "Cc1cc(=O)oc2cc(O[C@@H]3O[C@H](C(=O)O)[C@@H](O)[C@H](O)[C@H]3O)ccc12", "note": "[4-MUG, 4-methylumbelliferone-glucuronide]", "values": [{"measurement": "HA production by CHO-HAS3 cells", "setting": "CHO-HAS3 cells", "value": "directly inhibits HA synthesis"}, {"measurement": "time from which fluorescence (conversion to 4-MU) could be detected", "setting": "[1]", "value": "around 30 hours"}]}
{"smiles": "Cc1cc(=O)oc2cc(O)ccc12", "note": "[4-MU, 4-methylumbelliferone]", "values": [{"measurement": "amount of 4-MUG in fat and muscle, 4-MU treatment compared to 4-MUG treatment", "setting": "[2]", "value": "significantly higher amount of 4-MUG"}, {"measurement": "time period of oral treatment required for leukocyte populations to take up 4-MU", "setting": "blood leukocytes", "value": "1-2 weeks"}]}
